Laboratory results reported in patent US20230181578A1, “MODULATION OF MIXED LINEAGE KINASE DOMAIN-LIKE PROTEIN SIGNALING” (EBERHARD KARLS UNIVERSITÄT TÜBINGEN, priority 2020, published 2023).
Positions count from the first letter of the chain named.

Columns and labels:
phosphorylated MLKL [1] = experiment: MLKL phosphorylation, Western-blot, TSZ-treated NIH-3T3 wt cells; format: cell-based, mouse; details: FIG. 6D
Excerpt: (§1) A-B) Dose-dependence of the inhibitory effect of MBA-h1 (A) or MBA-m1M (B) on necroptotic cell death in human (HT-29) and mouse (NIH-3T3) cells. C-D) Effect of MBA-h1 (C) or MBA-m1 (D) on MLKL phosphorylation. E-F) Effect of MBA-h1 (E) or MBA-m1 (F) on MLKL translocation to the plasma membrane. HT-29 (C and E) or NIH-3T3 (D and F) wt cells were TSZ-treated in the presence or not of the inhibitors. NSA was used as a control in C and E. G) Inhibitory effect of MBA-m1 in MLKL ko cells transfected with mMLKL2 or the mutant mMLKL2_I84A_F87A. Cells were transfected with the different variants of MLKL-GFP. The dead cell population was calculated from transfected cells. Individual values from at least three independent experiments are shown. H-I) MBA-m1 ameliorates dermatitis in Tnfr1-KO HoipE-KO mice. H) Representative images of mice before and after 2 weeks' treatment with MBA-m1. I) Severity score of dermatitis assessed after and before treatment with the inhibitor. […] To quantify the sore of region affected, 0 values were assigned to no lesion, and 1 values were assigned when lesions were found in either neck, back, flank or head, being the sum of these elements taken as the final score. To quantify the character of lesions, 0 values were assigned to no lesions, 1 to excoriations one or small punctuate crust, 2 to multiple punctuate crust or coalescing crust, 3 to erosion, ulceration or bleeding. […]

MLKL [2] = experiment: MLKL translocation to the plasma membrane, TSZ-treated NIH-3T3 wt cells; format: cell-based, mouse; details: FIG. 6F
Excerpt: as §1

NIH-3T3 WT cells = experiment: Necroptosis inhibition assay, TSZ-treated mouse NIH-3T3 WT cells; format: cell-based
Excerpt: (§2) A-B) Dose-dependence of the inhibitory effect of MBA-h1 (A) or MBA-m1M (B) on necroptotic cell death in human (HT-29) and mouse (NIH-3T3) cells. C-D) Effect of MBA-h1 (C) or MBA-m1 (D) on MLKL phosphorylation. E-F) Effect of MBA-h1 (E) or MBA-m1 (F) on MLKL translocation to the plasma membrane. HT-29 (C and E) or NIH-3T3 (D and F) wt cells were TSZ-treated in the presence or not of the inhibitors. NSA was used as a control in C and E. G) Inhibitory effect of MBA-m1 in MLKL ko cells transfected with mMLKL2 or the mutant mMLKL2_I84A_F87A. Cells were transfected with the different variants of MLKL-GFP. The dead cell population was calculated from transfected cells. Individual values from at least three independent experiments are shown. H-I) MBA-m1 ameliorates dermatitis in Tnfr1-KO HoipE-KO mice. H) Representative images of mice before and after 2 weeks' treatment with MBA-m1. I) Severity score of dermatitis assessed after and before treatment with the inhibitor. Tnfr1-KO HoipE-KO (n=3). To quantify the sore of region affected, 0 values were assigned to no lesion, and 1 values were assigned when lesions were found in either neck, back, flank or head, being the sum of these elements taken as the final score. To quantify the character of lesions, 0 values were assigned to no lesions, 1 to excoriations one or small punctuate crust, 2 to multiple punctuate crust or coalescing crust, 3 to erosion, ulceration or bleeding. Data are presented as mean values±s.e.m.
(§3) To evaluate the necroptotic potential of the different mMLKL isoforms, each of the three isoforms were re-expressed in NIH-3T3 MLKL knock out (ko) cells following induction of necroptosis with a mixture of TNF, a Smac mimetic compound (LCL-161) and the pan-caspase inhibitor zVAD (TSZ), which is the most commonly used necroptosis-inducing cocktail. The inventors quantified cell death by flow cytometry (FIG. 1B) and confocal microscopy (FIG. 1C) using propidium iodide (PI) as a marker of irreversible plasma membrane disruption. As expected, mMLKL3 was intrinsically active, on account of its lack of the psK domain. […]

mMLKL2 = target: T1, mMLKL2 (Mus musculus, UniProt Q9D2Y4); experiment: Necroptosis inhibition in NIH MLKL ko cells containing mMLKL2; format: cell-based
T1 construct: GFP; expressed in transfected cells; host or cells: NIH-3T3 MLKL ko cells
T1 sequence (Q9D2Y4 1-464 isoform Q9D2Y4-2): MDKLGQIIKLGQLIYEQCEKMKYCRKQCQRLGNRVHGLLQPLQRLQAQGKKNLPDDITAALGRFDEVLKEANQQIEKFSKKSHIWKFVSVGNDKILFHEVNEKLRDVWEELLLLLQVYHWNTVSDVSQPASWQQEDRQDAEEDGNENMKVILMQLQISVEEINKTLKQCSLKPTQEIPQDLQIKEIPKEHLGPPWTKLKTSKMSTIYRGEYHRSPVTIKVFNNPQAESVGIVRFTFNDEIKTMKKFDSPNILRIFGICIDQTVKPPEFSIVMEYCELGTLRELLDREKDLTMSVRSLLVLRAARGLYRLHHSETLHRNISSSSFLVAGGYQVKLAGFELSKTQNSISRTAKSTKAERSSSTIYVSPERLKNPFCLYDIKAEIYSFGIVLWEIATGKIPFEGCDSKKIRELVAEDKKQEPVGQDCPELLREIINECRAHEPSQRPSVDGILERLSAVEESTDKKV
Excerpt: as §1

Tnfr1KO;HoipEKO mice = experiment: Necroptosis-driven dermatitis in Tnfr1KO;HoipEKO mice; format: in vivo, mouse; details: treated daily for three weeks from 30 to 40 days of age, end of treatment
Excerpt: as §2, with “H) Representative images of mice before and after 2 weeks' treatment with MBA-m1.” left out, “values±s.e.m. […]” for “values±s.e.m.”

mMLKL2_I84A_F87A = target: T2, mMLKL2_I84A_F87A (Mus musculus, UniProt Q9D2Y4, F87A/I84A); experiment: Cell death assay in MLKL ko cells transfected with mutant mMLKL2_I84A_F87A; format: cell-based; details: FIG. 6G
T2 construct: GFP; expressed in transfected cells
T2 sequence (Q9D2Y4 1-464 isoform Q9D2Y4-2 I84A/F87A): T1 sequence (Q9D2Y4 1-464 isoform Q9D2Y4-2) with I84A, F87A
Excerpt: as §1

MLKL [3] = experiment: MLKL translocation to the plasma membrane, TSZ-treated HT-29 wt cells; format: cell-based, human; details: FIG. 6E
Excerpt: as §1

hMLKL1 = target: T3, hMLKL1 (Homo sapiens, UniProt Q8NB16); experiment: Necroptosis inhibition in HT-29 MLKL ko cells re-expressing hMLKL1; format: cell-based; details: HT-29 MLKL ko re-expressing hMLKL1
T3 construct: GFP; expressed in transfected cells; host or cells: HT-29 MLKL ko cells
T3 sequence (Q8NB16 1-471): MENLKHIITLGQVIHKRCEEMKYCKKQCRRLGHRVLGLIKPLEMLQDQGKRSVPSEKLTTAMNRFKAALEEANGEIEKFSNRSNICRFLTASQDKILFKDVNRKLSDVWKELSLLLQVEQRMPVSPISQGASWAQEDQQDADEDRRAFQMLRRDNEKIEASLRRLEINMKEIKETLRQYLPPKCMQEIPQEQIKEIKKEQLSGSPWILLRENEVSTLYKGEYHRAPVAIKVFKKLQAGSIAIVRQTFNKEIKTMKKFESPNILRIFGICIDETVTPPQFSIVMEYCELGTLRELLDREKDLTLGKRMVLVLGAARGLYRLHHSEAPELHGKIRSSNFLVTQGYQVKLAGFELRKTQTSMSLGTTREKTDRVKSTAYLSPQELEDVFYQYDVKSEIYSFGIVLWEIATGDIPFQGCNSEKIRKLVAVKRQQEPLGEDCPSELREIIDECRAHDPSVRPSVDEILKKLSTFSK
Excerpt: The species-specificity was expected considering the large difference in the He/groove interactions between mouse and human MLKL (FIGS. 3 and 4).

HT-29 = experiment: Necroptosis inhibition assay, TSZ-treated human HT-29 cells; format: cell-based
Excerpt: as §2, §3

phosphorylated MLKL [4] = experiment: MLKL phosphorylation, Western-blot, TSZ-treated HT-29 wt cells; format: cell-based, human; details: FIG. 6C
Excerpt: as §1

With `COc1ccc2nc(C)cc(Nc3ccc(Oc4ccc5ccccc5c4)c(Cl)c3)c2c1` [MBA-m1, N-(3-chloro-4-naphthalen-2-yloxyphenyl)-6-methoxy-2-methylquinolin-4-amine] the “effect on MLKL phosphorylation” value (phosphorylated MLKL [1]) was “none of the compounds blocked the phosphorylation of MLKL”, the “effect on MLKL translocation to the plasma membrane” value (from here on “effect on MLKL translocation”) (MLKL [2]) was “potently interfered with MLKL translocation to the plasma membrane” and the “concentrations at which necroptosis is inhibited” value (NIH-3T3 WT cells; NIH-3T3 cells, FIG. 6B, compared with MBA-h1 (lower than 10 μM)) was “able to inhibit necroptosis at similar concentrations”. For the same compound, the “concentrations at which toxicity was presented” value (NIH-3T3 WT cells; higher concentrations, FIG. 6B) was 12.5 to 50 µM, the inhibition of necroptosis (NIH-3T3 WT cells; mouse NIH-3T3 WT cells, dose-dependent (FIG. 6B)) was “specifically inhibited necroptosis” and the inhibition of necroptosis (mMLKL2) was “had the same effect”. The “dermatitis, severity score of skin lesions” value (Tnfr1KO;HoipEKO mice) was “significantly ameliorated dermatitis” and the “inhibition of cell death mediated by mutant mMLKL2_I84A_F87A” value (mMLKL2_I84A_F87A) was “inert to inhibition”.

For `CN1CCN(c2ccc(-c3cccc(NC(=O)c4ccc5ccccc5c4)c3)nn2)CC1` [MBA-h1, N-[3-[6-(4-methylpiperazin-1-yl)pyridazin-3-yl]phenyl]naphthalene-2-carboxamide], the “effect on MLKL translocation” value (MLKL [3]) was “potently interfered with MLKL translocation to the plasma membrane”, the inhibition of necroptosis (hMLKL1) was “inhibited necroptosis” and the “concentrations at which inhibitory activity was observed” value (HT-29; HT-29 cells, FIG. 6A) was “lower than 10 μM”. For the same compound, the toxicity (HT-29; at inhibitory concentrations, FIG. 6A) was “without evidence of toxicity”, the inhibition of necroptosis (HT-29; human HT-29 cells, dose-dependent (FIG. 6A)) was “specifically inhibited necroptosis” and the “effect on MLKL phosphorylation” value (phosphorylated MLKL [4]) was “none of the compounds blocked the phosphorylation of MLKL”.

`COc1nccnc1NS(=O)(=O)c1ccc(NC(=O)/C=C/c2ccc([N+](=O)[O-])s2)cc1` [NSA, reference compound] was tested, and the “effect on MLKL translocation” value (MLKL [3]) was “interfered with MLKL translocation to the plasma membrane”.
